Assay results reported in paper PMC10420662, “Novel 7-Deazapurine Incorporating Isatin Hybrid Compounds as Protein Kinase Inhibitors: Design, Synthesis, In Silico Studies, and Antiproliferative Evaluation” (Molecules, 2023).
One block for each compound: values may come before it.

What was measured:
[1] = test system: HeLa; experiment: In vitro cytotoxicity MTT assay; type: cell-based; settings: Homo sapiens, 24 h treatment, mean ± SD of three experiments
Method: (§1) Briefly, the cytotoxicity of the synthesized derivatives and the reference compounds was assessed via the MTT assay on four cancer cell lines. The cells were cultured in an RPMI11640 medium with 10% fetal bovine serum (FBS) and an antibiotic cocktail of […] streptomycin and 100 units/mL penicillin. Cancer cell lines were seeded independently in 96-well plates at a concentration of 1.0 × 10^4 cells/well at 37 °C, 5% CO2, and 100% relative humidity for 48 h. Afterwards, the incubated cells were treated with five concentrations of the synthesized derivatives for 24 h. Then, 20 µL MTT (5 mg/mL) was added and left for 4 h before adding 100 µL dimethyl sulfoxide (DMSO) to each well to solubilize the formed formazan.

[2] = test system: MCF-7; experiment: In vitro cytotoxicity MTT assay; type: cell-based; settings: Homo sapiens, MCF7, 24 h treatment, mean ± SD of three experiments
Method: as §1

[3] = test system: MDA-MB-231; experiment: In vitro cytotoxicity MTT assay; type: cell-based; settings: Homo sapiens, 24 h treatment, mean ± SD of three experiments
Method: as §1

[4] = test system: HepG2; experiment: In vitro cytotoxicity MTT assay; type: cell-based; settings: Homo sapiens, 24 h treatment, mean ± SD of three experiments
Method: as §1

[5] = test system: caspase 3; experiment: Caspase 3 level assay (ELISA) in HepG2; type: cell-based, human; settings: HepG2 cells, 24 h, vs untreated control
Method: (§2) The effect of compound 5 was also evaluated on caspase 3, caspase 9, BAX, and Bcl-2 protein levels in HepG2 (Table 6). […] Additionally, the level of Bcl-2 was reduced in the treated cells (0.18-fold) compared to untreated control cells.
(§3) Compound 5 effect on Caspase 3, caspase 9, BAX, and Bcl-2 levels was analyzed by following the method described in [17]. In 96-well plates, HepG2 cells were cultured and incubated for 24 h. The cells were then treated with compound 5 or 0.1% DMSO (v/v) for 24 h. Afterwards, caspase 3 and 9, BAX, and Bcl-2 levels were determined using ELISA assay kits KHO1091 (InvitrogenTM, Grand Island, NY, USA), EIA-4860 (DRU International Inc., Mountainside, NJ, USA), EIA-4487 (DRU International Inc., Mountainside, NJ, USA), and 99-0042 (InvitrogenTM, Grand Island, NY, USA), respectively, according to the manufacturers’ procedures.

[6] = molecular target: HER2 (Homo sapiens, UniProt P04626); experiment: Kinase inhibition assay (ELISA kit)
HER2, sequence (P04626 23-1255): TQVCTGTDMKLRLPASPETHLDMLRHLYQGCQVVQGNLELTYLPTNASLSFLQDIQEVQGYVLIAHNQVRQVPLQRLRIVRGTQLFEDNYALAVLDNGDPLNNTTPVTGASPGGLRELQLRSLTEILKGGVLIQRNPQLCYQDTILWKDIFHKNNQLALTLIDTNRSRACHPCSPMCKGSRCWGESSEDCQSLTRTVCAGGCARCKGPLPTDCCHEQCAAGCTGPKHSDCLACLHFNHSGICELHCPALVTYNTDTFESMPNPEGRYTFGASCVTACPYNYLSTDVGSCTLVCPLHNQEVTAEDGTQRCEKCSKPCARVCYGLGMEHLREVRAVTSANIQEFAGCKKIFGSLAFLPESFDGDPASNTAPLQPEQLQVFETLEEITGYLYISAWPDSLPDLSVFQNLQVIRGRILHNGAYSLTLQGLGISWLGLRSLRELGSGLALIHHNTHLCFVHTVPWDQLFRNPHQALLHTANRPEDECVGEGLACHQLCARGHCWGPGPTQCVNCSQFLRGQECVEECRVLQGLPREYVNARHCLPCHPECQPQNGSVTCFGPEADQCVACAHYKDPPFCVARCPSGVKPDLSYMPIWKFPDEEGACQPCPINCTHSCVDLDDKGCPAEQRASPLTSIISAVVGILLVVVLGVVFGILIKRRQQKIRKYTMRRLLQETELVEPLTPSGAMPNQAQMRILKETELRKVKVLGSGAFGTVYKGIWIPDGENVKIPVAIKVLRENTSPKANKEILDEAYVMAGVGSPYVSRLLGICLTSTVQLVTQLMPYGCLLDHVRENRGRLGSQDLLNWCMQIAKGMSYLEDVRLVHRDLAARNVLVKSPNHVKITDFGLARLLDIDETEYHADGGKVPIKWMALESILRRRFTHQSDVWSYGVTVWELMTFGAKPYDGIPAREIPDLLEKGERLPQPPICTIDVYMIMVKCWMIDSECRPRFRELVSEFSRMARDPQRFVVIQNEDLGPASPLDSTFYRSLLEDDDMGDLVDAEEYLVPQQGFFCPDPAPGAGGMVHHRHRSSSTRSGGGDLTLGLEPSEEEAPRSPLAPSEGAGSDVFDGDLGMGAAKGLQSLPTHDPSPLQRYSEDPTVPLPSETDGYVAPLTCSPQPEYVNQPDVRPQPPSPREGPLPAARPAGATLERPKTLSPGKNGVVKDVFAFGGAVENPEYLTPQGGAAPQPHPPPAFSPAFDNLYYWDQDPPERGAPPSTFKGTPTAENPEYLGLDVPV
Method: (§4) In vitro kinase inhibition assays were assessed against CDK2, EGFR, HER2, and VEGFR2, as described in [17, 27, 28]. […] Afterwards, the wells were washed. Then, 100 µL of the prepared biotin antibody was placed into each well and left for 1 h at room temperature. The wells were washed again before adding 100 µL of streptavidin solution and left for 45 min at room temperature. Then, 100 µL of TMB substrate reagent was added after a third washing step, and the plates were left for 30 min at room temperature. Finally, 50 µL of the stop solution was added to each well and the color intensity was measured at 450 nm.

[7] = molecular target: VEGFR2 (Homo sapiens, UniProt P35968); experiment: Kinase inhibition assay (ELISA kit)
VEGFR2, sequence (P35968 20-1356): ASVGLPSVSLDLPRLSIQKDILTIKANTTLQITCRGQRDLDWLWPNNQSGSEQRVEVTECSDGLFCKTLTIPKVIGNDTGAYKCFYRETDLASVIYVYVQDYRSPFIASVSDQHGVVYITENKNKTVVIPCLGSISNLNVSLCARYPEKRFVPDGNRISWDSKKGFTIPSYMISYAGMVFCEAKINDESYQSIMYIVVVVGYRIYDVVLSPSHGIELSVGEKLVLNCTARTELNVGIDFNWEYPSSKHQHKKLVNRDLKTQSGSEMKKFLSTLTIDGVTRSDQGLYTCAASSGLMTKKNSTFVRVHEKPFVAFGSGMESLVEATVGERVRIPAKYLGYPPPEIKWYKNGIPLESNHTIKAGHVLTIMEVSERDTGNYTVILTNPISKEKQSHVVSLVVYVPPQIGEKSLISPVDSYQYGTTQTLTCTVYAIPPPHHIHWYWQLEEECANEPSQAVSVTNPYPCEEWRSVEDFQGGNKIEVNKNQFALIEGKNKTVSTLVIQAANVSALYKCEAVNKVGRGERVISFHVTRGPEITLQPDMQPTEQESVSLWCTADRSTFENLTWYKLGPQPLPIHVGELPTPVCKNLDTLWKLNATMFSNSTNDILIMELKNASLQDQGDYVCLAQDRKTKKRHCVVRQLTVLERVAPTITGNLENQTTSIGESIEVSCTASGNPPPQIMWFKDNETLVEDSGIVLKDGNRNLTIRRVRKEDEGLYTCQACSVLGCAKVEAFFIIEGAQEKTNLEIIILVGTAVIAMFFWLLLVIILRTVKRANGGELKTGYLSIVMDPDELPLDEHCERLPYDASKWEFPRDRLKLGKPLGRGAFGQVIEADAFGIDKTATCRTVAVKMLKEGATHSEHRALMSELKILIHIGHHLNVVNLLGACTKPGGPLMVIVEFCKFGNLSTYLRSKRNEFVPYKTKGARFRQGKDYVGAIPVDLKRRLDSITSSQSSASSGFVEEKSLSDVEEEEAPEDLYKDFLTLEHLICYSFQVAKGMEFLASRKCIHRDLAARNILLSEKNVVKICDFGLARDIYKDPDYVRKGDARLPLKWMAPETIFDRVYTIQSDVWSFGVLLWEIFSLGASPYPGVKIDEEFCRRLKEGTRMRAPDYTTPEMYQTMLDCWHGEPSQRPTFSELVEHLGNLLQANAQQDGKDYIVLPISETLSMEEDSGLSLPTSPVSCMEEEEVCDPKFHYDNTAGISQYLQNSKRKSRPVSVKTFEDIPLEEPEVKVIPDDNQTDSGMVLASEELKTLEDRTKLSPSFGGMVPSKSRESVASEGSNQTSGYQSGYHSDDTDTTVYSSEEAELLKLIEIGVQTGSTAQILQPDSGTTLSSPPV
Method: as §4

[8] = molecular target: CDK2 (Homo sapiens, UniProt P24941); experiment: Kinase inhibition assay (ELISA kit)
Method: as §4

[9] = test system: HepG2 cells; experiment: Apoptosis analysis (Annexin V-FITC/PI flow cytometry); type: cell-based, human
Method: Annexin V and propidium iodide (PI) reagent were used to detect the cell death in apoptosis by binding to phosphatidyl serine and DNA in plasma membrane, respectively. The cell death was examined by staining HepG2 cells with Annexin V and PI, and cellular fluorescence analysis was then performed using flow cytometry (Table 5). According to the results, compound 5 induced apoptosis by 160-fold in the late stage and by 20-fold in the early stage. […] As shown in the dot plot results, compound 5 caused exerted noticeable cell damage compared to untreated cells (Figure 4). Collectively, the results of cell cycle and apoptosis analysis confirmed the cytotoxicity effects of compound 5.
Effect of compound 5 on cell programmed cell death was analyzed using Annexin V-FITC cell apoptosis detection kit (K101-100) (BioVision Techology, Inc., Exon, PA, USA) by following the method described in [17, 30]. Briefly, in 6-well plates, HepG2 cells at a density of 2 × 10^5 were cultured and incubated for 24 h. The cultured cells were then treated with compound 5 for 24 h. Afterwards, the cells were trypsinized and gathered via centrifugation (5 min, 300× g), washed twice with PBS, and suspended in 0.1 mL of a 1X binding buffer. Then, the cells were double-stained with 5 µL Annexin V-FITC and 5 µL PI in the dark at room temperature for 15 min before they were examined using an Epics XL-MCL™ Flow Cytometer (Beckman Coulter, Apeldoorn, The Netherlands). The excitation wavelength was 488 nm while the emission wavelength was 530 nm. Finally, the data were analyzed using Flowing software (version 2.5.1, Turku Centre for Biotechnology, Turku, Finland).

[10] = test system: Bcl-2; experiment: Bcl-2 level assay (ELISA) in HepG2; type: cell-based, human; settings: HepG2 cells, 24 h, vs untreated control
Method: as §2, §3

[11] = test system: HepG2 cells; experiment: Cell cycle analysis (propidium iodide flow cytometry); type: cell-based, human; settings: 6.11 μM, 24 h
Method: Cell cycle analysis can determine at which phase in the cell cycle apoptosis occurs. The cell cycle is four phases consisting of G1 (growth), S (DNA synthesis), G2 (growth and preparation for mitosis), and M (mitosis). Normal cell growth and proliferation are controlled by various checkpoints at these phases. Thus, HepG2 cells were treated with 6.11 μM of compound 5 to determine at which phase apoptosis occurs in the cell cycle for 24 h (Figure 3 and Table 4).
Effect of compound 5 on cell cycle distribution was analyzed using following the method described in [17, 29]. Briefly, to determine the influence of compound 5 on the cell cycle progression of HepG2 cells, flow cytometry analysis was performed using Propidium Iodide flow cytometry kit/BD (ab139418). First, the cells were cultured at a density of 2 × 10^5/well and incubated for 24 h. Afterwards, the cells were treated with compound 5 for 24 h. Then, the cells were fixed using 70% ethanol for 12 h at 4 °C. The cells were then washed with cold PBS, incubated with 100 µL RNase A for 30 min at 37 °C, and stained with Propidium Iodide (400 µL) in the dark at room temperature for 30 min. The stained cells were identified by running Epics XLMCL™ flow cytometer equipment (Beckman Coulter, Apeldoorn, The Netherlands), and the results were interpreted using Flowing software (version 2.5.1, Turku Centre for Biotechnology, Turku, Finland).

[12] = test system: caspase 9; experiment: Caspase 9 level assay (ELISA) in HepG2; type: cell-based, human; settings: HepG2 cells, 24 h, vs untreated control
Method: as §2, §3

[13] = molecular target: EGFR (Homo sapiens, UniProt P00533); experiment: Kinase inhibition assay (ELISA kit)
EGFR, sequence (P00533 25-1210): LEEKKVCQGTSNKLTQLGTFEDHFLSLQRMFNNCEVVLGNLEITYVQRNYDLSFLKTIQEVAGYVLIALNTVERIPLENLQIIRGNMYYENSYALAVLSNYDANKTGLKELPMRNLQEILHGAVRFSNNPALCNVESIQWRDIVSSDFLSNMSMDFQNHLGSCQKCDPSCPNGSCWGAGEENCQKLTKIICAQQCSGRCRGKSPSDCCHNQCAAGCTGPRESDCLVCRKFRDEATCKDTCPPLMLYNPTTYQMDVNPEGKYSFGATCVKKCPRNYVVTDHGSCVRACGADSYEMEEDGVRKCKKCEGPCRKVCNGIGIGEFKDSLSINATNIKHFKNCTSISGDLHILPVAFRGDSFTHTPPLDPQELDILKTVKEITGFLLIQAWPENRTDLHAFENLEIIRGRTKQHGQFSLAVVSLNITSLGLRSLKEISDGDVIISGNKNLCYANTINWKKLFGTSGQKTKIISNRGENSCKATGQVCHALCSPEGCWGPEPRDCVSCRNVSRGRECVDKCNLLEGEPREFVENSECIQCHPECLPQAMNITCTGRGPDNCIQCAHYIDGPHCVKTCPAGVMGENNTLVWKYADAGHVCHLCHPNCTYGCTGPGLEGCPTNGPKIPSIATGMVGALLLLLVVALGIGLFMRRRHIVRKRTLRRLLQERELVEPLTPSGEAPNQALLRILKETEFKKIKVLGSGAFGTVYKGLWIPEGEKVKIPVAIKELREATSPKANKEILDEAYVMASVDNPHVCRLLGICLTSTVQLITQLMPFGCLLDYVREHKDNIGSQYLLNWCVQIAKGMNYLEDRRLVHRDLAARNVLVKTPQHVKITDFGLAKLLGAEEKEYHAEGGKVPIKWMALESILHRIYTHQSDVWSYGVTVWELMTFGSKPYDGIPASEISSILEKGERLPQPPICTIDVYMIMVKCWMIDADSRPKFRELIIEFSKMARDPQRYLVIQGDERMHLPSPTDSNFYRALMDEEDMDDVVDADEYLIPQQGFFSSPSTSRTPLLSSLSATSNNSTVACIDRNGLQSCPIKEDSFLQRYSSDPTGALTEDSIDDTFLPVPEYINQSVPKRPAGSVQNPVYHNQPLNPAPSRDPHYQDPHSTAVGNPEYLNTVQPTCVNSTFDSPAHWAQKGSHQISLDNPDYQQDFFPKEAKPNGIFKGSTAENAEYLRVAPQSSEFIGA
Method: as §4

[14] = test system: BAX; experiment: BAX level assay (ELISA) in HepG2; type: cell-based, human; settings: HepG2 cells, 24 h, vs untreated control
Method: as §2, §3

[15] = test system: HepG2, MCF-7, MDA-MB-231, and HeLa cell lines; experiment: In vitro cytotoxicity MTT assay, all tested cell lines; type: cell-based, human
Method: as §1

Compound: CCN(CC)CCNC(=O)c1c(C)[nH]c(/C=C2\C(=O)Nc3ccc(F)cc32)c1C [Sunitinib, reference compound]
IC50 [1]: 7.48 ± 0.6 µM
IC50 [2]: 5.19 ± 0.4 µM
IC50 [3]: 8.41 ± 0.7 µM
IC50 [4]: 6.82 ± 0.5 µM

Compound: O=C1Nc2ccc(Cl)cc2C1=NNC(=O)c1ccc(Nc2ncnc3[nH]ccc23)cc1 [Compound 2, 4-((7H-pyrrolo[2,3-d]pyrimidin-4-yl)amino)-N′-(5-chloro-2-oxoindolin-3-ylidene)benzohydrazide]
IC50 [1]: 45.4 ± 2.6 µM
IC50 [2]: 72.5 ± 3.7 µM
IC50 [3]: 51.3 ± 2.9 µM
IC50 [4]: 67.4 ± 3.6 µM

IC50 [6]: 0.081 ± 0.002 µM
IC50 [7]: 0.178 ± 0.009 µM
IC50 [8]: 0.131 ± 0.007 µM
IC50 [13]: 0.103 ± 0.006 µM
Compound: COc1ccc2c(c1)C(=NNC(=O)c1ccc(Nc3ncnc4[nH]ccc34)cc1)C(=O)N2 [Compound 5, 4-((7H-pyrrolo[2,3-d]pyrimidin-4-yl)amino)-N′-(5-methoxy-2-oxoindolin-3-ylidene)benzohydrazide]
Gene Expression Fold Change Caspase 3 [5]: 7.984 fold
Gene Expression Fold Change Caspase 3 ([5]; listed as compound 5): 8 fold
Apoptosis Early ([9]; 24 h, Annexin V-FITC/PI): 13.28%
Apoptosis Late ([9]; 24 h, Annexin V-FITC/PI): 21.16%
Necrosis ([9]; 24 h, Annexin V-FITC/PI): 5.28%
Increase in necrotic cell death ([9]; compared to untreated cells): 4.75 fold
Induction of apoptosis in the early stage ([9]; compared to untreated cells): 20 fold
Induction of apoptosis in the late stage ([9]; compared to untreated cells): 160 fold
Gene Expression Fold Change Bcl-2 [10]: 0.184 fold
Gene Expression Fold Change Bcl-2 ([10]; listed as compound 5): 0.18 fold
Cell Cycle Distribution %G0-G1 [11]: 49.02%
Cell Cycle Distribution %G2/M [11]: 6.05%
Cell Cycle Distribution %Pre-G1 [11]: 39.72%
Cell Cycle Distribution %S [11]: 44.93%
Cell cycle arrest phase [11]: arrested the cell cycle of HepG2 cells at G1 and S phases
Gene Expression Fold Change Caspase 9 [12]: 4.853 fold
Gene Expression Fold Change Caspase 9 ([12]; listed as compound 5): 5 fold
IC50 [1]: 1.98 ± 0.1 µM
IC50 [2]: 5.93 ± 0.3 µM
IC50 [3]: 2.48 ± 0.1 µM
IC50 [4]: 6.11 ± 0.4 µM
Gene Expression Fold Change Bax [14]: 6.13 fold
Gene Expression Fold Change Bax ([14]; listed as compound 5): 6 fold

Compound: O=C1Nc2ccc(F)cc2C1=NNC(=O)c1ccc(Nc2ncnc3[nH]ccc23)cc1 [Compound 3, 4-((7H-pyrrolo[2,3-d]pyrimidin-4-yl)amino)-N′-(5-fluoro-2-oxoindolin-3-ylidene)benzohydrazide]
IC50 [1]: 39.1 ± 2.4 µM
IC50 [2]: 63.7 ± 3.4 µM
IC50 [3]: 42.9 ± 2.6 µM
IC50 [4]: 59.3 ± 3.3 µM

Compound: O=C1Nc2ccccc2C1=NNC(=O)c1ccc(Nc2ncnc3[nH]ccc23)cc1 [Compound 1, 4-((7H-pyrrolo[2,3-d]pyrimidin-4-yl)amino)-N′-(2-oxoindolin-3-ylidene)benzohydrazide]
Antiproliferative activity (in words) [15]: moderate antiproliferative activity
IC50 [1]: 12.4 ± 0.9 µM
IC50 [2]: 18.5 ± 1.5 µM
IC50 [3]: 16 ± 1.3 µM
IC50 [4]: 25.8 ± 1.9 µM

Compound: Cc1ccc2c(c1)C(=NNC(=O)c1ccc(Nc3ncnc4[nH]ccc34)cc1)C(=O)N2 [Compound 4, 4-((7H-pyrrolo[2,3-d]pyrimidin-4-yl)amino)-N′-(5-methyl-2-oxoindolin-3-ylidene)benzohydrazide]
IC50 [1]: 75.4 ± 3.5 µM
IC50 [2]: 80.2 ± 4.2 µM
IC50 [3]: 73.2 ± 3.3 µM
IC50 [4]: 92.7 ± 4.5 µM

Compound: COc1cccc2c1C(=O)c1c(O)c3c(c(O)c1C2=O)C[C@@](O)(C(=O)CO)C[C@@H]3O[C@H]1C[C@H](N)[C@H](O)[C@H](C)O1 [DOXORUBICIN, doxorubicin, reference compound]
IC50 [4]: 4.5 ± 0.2 µM
